Test results published in US20160158231A1, “PYRIMIDINE HYDROXY AMIDE COMPOUNDS FOR TREATING PERIPHERAL NEUROPATHY” (VIB VZW, priority 2014, published 2016).
Entries after “also recorded” stand apart in the source; their conditions may differ.

What was measured:
[1] = Mouse pharmacokinetic studies (plasma and brain); format: in vivo; settings: male, C57BL/6, mouse, iv, 1 mg/kg, read-out: Mouse brain to plasma ratio
Description: Male C57BL/6 mice were fasted overnight. Compounds A and B were dissolved in dimethyl acetamide at 10 times the final concentration, then Solutol HS 15 (BASF) was added to a final concentration of 10%. Finally 80% saline was added and vortexed to achieve a clear solution. Fifteen animals were injected via the tail vein with 1 mg/kg compound. Blood was collected by retro-orbital bleed at 5 minutes, 15 minutes, 30 minutes, 1 hour, 2 hours, 4 hours, 8 hours and 24 hours after dosing. At 5 minutes, 30 minutes, 1 hour and 4 hours after dosing three animals per time point were sacrificed and brains were removed. The blood was centrifuged at 2000 g for 5 minutes at 4° C. to obtain plasma. Brain samples were homogenized in PBS. The plasma and brain homogenate were extracted with acetonitrile and the level of compound was analyzed by LC/MS/MS. The level of compound in plasma was calculated from a standard curve in rat plasma and the level in brain was calculated from a standard curve in brain homogenate. The area under the curve in plasma and brain were calculated using WinNonLin software. The brain to plasma ratio was determined using the area under the curve values for the two compartments.

[2] = tested on: taxol-induced neuropathic pain model in rats; experiment: Taxol-induced neuropathic pain model in rats (Von Frey test); format: in vivo, rat
Description: A study was conducted to extend the previous findings in the vincristine model to a different model of chemotherapy-induced neuropathy, the taxol-induced neuropathic pain model in rats.
Neuropathic pain is induced by a 0.5 ml/kg injection of taxol (2 mg/kg) administered IP on days 0-12. The development of neuropathic pain is confirmed by measuring mechanical allodynia (Von Frey test) on study day 13 as described above.
Pain was assessed using Von-Frey (VF) test for tactile allodynia on study days 13-15. The Rotarod Test was used to assess motor/coordination function.
Neuropathic pain was induced by a 0.5 ml/kg injection of taxol (2 mg/kg) administered IP on study days 0-12. The development of neuropathic pain was confirmed by measuring mechanical allodynia (Von Frey test) on study day 13.

[3] = tested on: vincristine-induced neuropathic pain model in rats; experiment: Vincristine-induced neuropathic pain model in rats (Von Frey test); format: in vivo, rat
Description: Neuropathic pain is induced by injecting 5 ml/kg Vincristine (50 μg/kg) administered daily IP for a period of 12 days. The development of neuropathic pain is confirmed by measuring of mechanical allodynia (Von Frey test) on study day 13.
Allodynic response to tactile stimulation is assessed using the Von Frey apparatus (Touch Test®).
The rat will be placed in an enclosure and positioned on a metal mesh surface, but allowed to move freely. The rats' cabins are covered with red cellophane to diminish environmental disturbances. The test begins after a cessation of exploratory behavior. The set of Von Frey monofilaments provide an approximate logarithmic scale of actual force and a linear scale of perceived intensity.
The operating principle: when the tip of a fiber of given length and diameter is pressed against the skin at right angles, the force of application increases as long as the researcher continues to advance the probe until the fiber bends. After the fiber bends, the probe continues to advance, causing the fiber to bend more, but without additional force being applied. […] The Touch Test™ Sensory Evaluator can be used on the plantar surfaces of the rat's foot. The animal indicates sensation by pulling back its paw. The minimal force needed to elevate the withdrawal reflex is considered/designated as the value of reference. In order to achieve paw withdrawal, the pressure applied is sometimes greater than 60 g, often requiring the researcher to apply enough pressure with the Von Frey filament to actually lift the paw of the naive animal. Decreases in force needed to induce withdrawal are indicative of allodynia, as the force applied is a non-painful stimulus under normal conditions.

[4] = Rat pharmacokinetic studies; format: in vivo; settings: plasma, male SD rats, IV 1 mg/kg
Description: Male SD rats were fasted overnight. Compounds A and B were dissolved in dimethyl acetamide at 10 times the final concentration, then Solutol HS 15 (BASF) was added to a final concentration of 10%. Finally 80% saline was added and vortexed to achieve a clear solution. For the IV dosing three animals were injected via the foot dorsal vein with 1 mg/kg compound. For the PO dosing 5 mg/kg of compound was delivered by oral gavage. Blood was collected via the tail vein into K2EDTA tubes at 5 minutes, 15 minutes, 30 minutes, 1 hour, 2 hours, 4 hours, 8 hours and 24 hours after dosing. The blood was centrifuged at 2000 g for 5 minutes at 4° C. to obtain plasma. The plasma was extracted with acetonitrile and the level of compound was analyzed by LC/MS/MS. The level of compound in plasma was calculated from a standard curve in rat plasma. The IV clearance and area under the curve were calculated using WinNonLin software. The dose adjusted area under the curve for the IV and oral dosing were used to calculate the oral bioavailability.

[5] = tested on: HDAC6 (acetylated α-tubulin) in Neuro2a cells; experiment: Acetylated α-tubulin in Neuro2a cells (Western blot, staining): potency to inhibit HDAC6; settings: for acetylated α-tubulin levels on Western blot / acetylated α-tubulin, staining of treated cells: 1 μM; for acetylated α-tubulin levels on Western blot: compared to DMSO; for acetylated α-tubulin, staining of treated cells: immunofluorescent staining; for relative potency to increase acetylated α-tubulin (dose-response): Western blot, different concentrations
HSPB1^S135F DRG neurons [6] = experiment: Axonal transport of mitochondria in DRG neurons cultured from HSPB1 S135F mice; format: cell-based, mouse; settings: 2.5 μM; for amount of stationary mitochondria / number of moving mitochondria in the neurites / number of total mitochondria in the neurites: vs DMSO
Text: Both compounds were able to increase the number of moving mitochondria in the neurites of HSPB1^S135F DRG neurons (FIGS. 4A and 4D).

[7] = tested on: acetylated histone 3 (H3) in Neuro2a cells; experiment: Acetylation status of histone 3 in Neuro2a cells: selectivity; format: cell-based, mouse; settings: 1 μM; for acetylation of H3 on Western blot: ratio acetylated H3/H4 normalized to DMSO
[8] = tested on: C57B16/J mice, vincristine-induced sensory neuropathy; format: in vivo, mouse
Description: To study whether treatment with vincristine in vivo could induce a peripheral neuropathy, C57B16/J mice were injected intraperitoneally with vincristine on a daily basis. First, the animals were injected with different doses of vincristine. As sensory rather than motor problems are more pronounced in vincristine associated neuropathy patients, the Sensory Nerve Action Potentials (SNAPs) of the dorsal caudal tail nerve were first evaluated (FIG. 6A).
These animals were co-treated with vincristine and a selective HDAC6-inhibitor (Tubastatin A) to study the therapeutic potential of HDAC6-inhibition. […] A motor phenotype in our mice after vincristine treatment was not detected (results not shown).

mutant HSPB1^S135F mice [9] = experiment: Motor and sensory deficits of mutant HSPB1 S135F mice (CMT2 model); format: in vivo, mouse; settings: 3 mg/kg, daily IP injection, symptomatic animals
Text: From the age of 6 months on, mutant HSPB1^S135F mice display motor and sensory deficits (d'Ydewalle et al., 2011). […] A positive trend for all the compounds tested was observed.

mutant HSPB1^S135F mice [10] = settings: d'Ydewalle et al., 2011; cited from earlier work
HSPB1^S135F DRG neurons [11] = settings: d'Ydewalle et al., 2011; cited from earlier work

Row | Compound | Kp [1] | clearance [4] [mL/min/kg] | acetylated α-tubulin levels on Western blot [5] | acetylated α-tubulin, staining of treated cells [5] | levels of acetylated α-tubulin in the neurites (staining) (HSPB1^S135F DRG neurons [6]) | amount of stationary mitochondria (HSPB1^S135F DRG neurons [6]) | number of moving mitochondria in the neurites (HSPB1^S135F DRG neurons [6]) | number of total mitochondria in the neurites (HSPB1^S135F DRG neurons [6]) | acetylation of H3 on Western blot [7] | amplitude of the compound muscle action potential (CMAP) (mutant HSPB1^S135F mice [9]) | relative potency to increase acetylated α-tubulin (dose-response) [5] | restoration of motor and sensory defects (mutant HSPB1^S135F mice [10]) | other results
1 | O=C(NO)c1cnc(NC2(c3ccccc3)CC2)nc1 [Compound A, N-hydroxy-2-((1-phenylcyclopropyl)amino)pyrimidine-5-carboxamide] | 1.23 | 100 | significant increase | increased levels | increased | remains unchanged | increase | increase | do not change |  |  |  | Von Frey withdrawal force ([2]; 3 mg/kg PO b.i.d., 2 hours post dosing, study day 15, vehicle 13.21±1.49 g): 53.20 ± 2.78 g; Von Frey withdrawal force ([2]; 10 mg/kg PO b.i.d., study day 13 post dosing, vehicle 15.33±2.13 g): 53.11 ± 4.77 g; reversing pain (conclusion) ([2]; doses of 3 mg/kg and 10 mg/kg): active in reversing pain; increasing the withdrawal force (Von Frey) ([3]; 3 mg/kg PO b.i.d.): not active; animals waking ability ([3]; 3 mg/kg and 10 mg/kg PO starting from study day 7): trend of improvement; Von Frey withdrawal force ([3]; 10 mg/kg PO b.i.d., study day 13, vehicle 9.45±0.66 g, ns): 11.00 ± 1.07 g; Von Frey withdrawal force ([3]; 10 mg/kg PO b.i.d., study day 15, vehicle 14.50±1.51 g, p<0.05): 33.85 ± 6.96 g; Von Frey force ([3]; 10 mg/kg, study days 14-15): significantly decreased; sensory neuropathy induced by vincristine (SNAP) ([8]; 25 mg/kg/day intraperitoneal, one week, co-treatment with vincristine): seems to reduce the sensory neuropathy
2 | O=C(NO)c1cnc(NC2(c3cccc(F)c3)CCCCC2)nc1 [Compound B, 2-((1-(3-fluorophenyl)cyclohexyl)amino)-N-hydroxypyrimidine-5-carboxamide] | 1.28 | 38.3 | significant increase | increased levels | increased | remains unchanged | increase | increase | do not change | statistical significant rescue; also recorded: can restore | more potent |  | 
3 | NCC1(CC(=O)O)CCCCC1 [Gabapentin, reference compound] |  |  |  |  |  |  |  |  |  |  |  |  | Von Frey withdrawal force ([2]; 150 mg/kg IP, 2 hours post dosing, study day 15, vehicle 13.21±1.49 g): 54.90 ± 3.63 g; Von Frey withdrawal force ([3]; 150 mg/kg IP, study day 15, vehicle 14.50±1.51 g): 43.95 ± 5.00 g
4 | CC(/C=C/C(=O)NO)=C\[C@@H](C)C(=O)c1ccc(N(C)C)cc1 [TSA, Trichostatin A, reference compound] |  |  |  | increased levels |  |  |  |  | increases |  | more potent | can be restored | acetylated H3 in nuclei, staining of treated cells ([7]; immunofluorescent staining): more acetylated H3
5 | CN1CCc2c(c3ccccc3n2Cc2ccc(C(=O)NO)cc2)C1 [Tubastatin A] |  |  |  |  |  |  |  |  |  | can restore |  | can be restored | rescue of the axonal transport defect of mitochondria (HSPB1^S135F DRG neurons [11]): could be rescued
6 | CC[C@]1(O)C[C@H]2CN(CCc3c([nH]c4ccccc34)[C@@](C(=O)OC)(c3cc4c(cc3OC)N(C=O)[C@H]3[C@@](O)(C(=O)OC)[C@H](OC(C)=O)[C@]5(CC)C=CCN6CC[C@]43[C@@H]65)C2)C1 [vincristine] |  |  |  |  |  |  |  |  |  |  |  |  | reduction in SNAP amplitude compared to vehicle treated mice ([8]; C57B16/J, mouse, in vivo, ip, 7 days): 35.4%; motor phenotype ([8]; mouse, in vivo): not detected; SNAP latencies ([8]; mouse, in vivo, ip): unaffected
